Experimental data from publication PMC12214007, “CARF-dependent preferential RNA cleavage by Csm6 increases drug susceptibility of mycobacteria” (Nucleic Acids Research, 2025).

Target: Csm6 (Mtb Csm6) (Mycobacterium tuberculosis, UniProt P71635)
Sequence (P71635 34-415): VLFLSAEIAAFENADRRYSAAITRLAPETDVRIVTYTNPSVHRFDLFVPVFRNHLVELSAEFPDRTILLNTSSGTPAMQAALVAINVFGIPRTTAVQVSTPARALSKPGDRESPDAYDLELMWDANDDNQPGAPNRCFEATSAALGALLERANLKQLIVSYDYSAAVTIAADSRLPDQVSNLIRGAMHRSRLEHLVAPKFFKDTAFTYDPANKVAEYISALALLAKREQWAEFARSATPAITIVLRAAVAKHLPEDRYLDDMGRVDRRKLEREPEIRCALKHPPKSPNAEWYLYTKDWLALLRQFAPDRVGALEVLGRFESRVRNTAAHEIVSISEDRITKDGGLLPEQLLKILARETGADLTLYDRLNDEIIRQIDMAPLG

Nc1ncnc2c1ncn2[C@@H]1O[C@@H]2COP(=O)(O)O[C@H]3[C@@H](O)[C@H](n4cnc5c(N)ncnc54)O[C@@H]3COP(=O)(O)O[C@H]3[C@@H](O)[C@H](n4cnc5c(N)ncnc54)O[C@@H]3COP(=O)(O)O[C@H]3[C@@H](O)[C@H](n4cnc5c(N)ncnc54)O[C@@H]3COP(=O)(O)O[C@H]3[C@@H](O)[C@H](n4cnc5c(N)ncnc54)O[C@@H]3COP(=O)(O)O[C@H]3[C@@H](O)[C@H](n4cnc5c(N)ncnc54)O[C@@H]3COP(=O)(O)O[C@H]2[C@H]1O [cA6, cyclic hexa-adenylate]
gel-based cleavage assay of Cy5-labelled 24 nt ssRNA: the presence of cA6 significantly enhances the nuclease activity of Csm6
